Publication PMC4770715, “LIM kinase inhibitors disrupt mitotic microtubule organization and impair tumor cell proliferation” (Oncotarget, 2015)

Experiments:
LIMK2 = LIMK2 (Homo sapiens, UniProt P53671); assay: in vitro kinase enzyme assay; assay type: biochemical
CDK8 = CDK8 (Homo sapiens, UniProt P49336); assay: biochemical; parameters: KINOMEscan active-site competition binding, percent of control (100 = no competition); details: competition binding, percent control
Description: (§1) Given the potential for the use of LIMK inhibitors as cancer chemotherapeutics, a high-throughput drug discovery and medicinal chemistry program was undertaken. Details of the screening methodology and description of initial hit matter were described in [38]. […] Details of their chemical synthesis are described in Charles et al.. […] These and additional physiochemical parameters are in Supplemental Table 5. […] Kinases inhibited >25% to 50% have yellow circles, 51% to 75% have orange circles, and >76% have red circles. In each case, the size of the circle is proportional to percentage inhibition. LIMK1 and LIMK2 positions are indicated in blue. Illustration reproduced courtesy of Cell Signaling Technology, Inc. (www.cellsignal.com). B. CRT0105950 structure and kinome selectivity mapping as described above. C.

CSNK1G1 = CSNK1G1 (Homo sapiens, UniProt Q9HCP0); assay: biochemical; parameters: KINOMEscan active-site competition binding, percent of control (100 = no competition); details: competition binding, percent control
Description: as §1

[1] = target: EGFR(L747-E749del, A750P) (Homo sapiens, UniProt P00533, A750P/DEL747-749); assay: biochemical; parameters: KINOMEscan active-site competition binding, percent of control (100 = no competition); details: competition binding, percent control
Description: as §1

EPHA3 = EPHA3 (Homo sapiens, UniProt P29320); assay: biochemical; parameters: KINOMEscan active-site competition binding, percent of control (100 = no competition); details: competition binding, percent control
Description: as §1

EPHA5 = EPHA5 (Homo sapiens, UniProt P54756); assay: biochemical; parameters: KINOMEscan active-site competition binding, percent of control (100 = no competition); details: competition binding, percent control
Description: as §1

EPHA7 = EPHA7 (Homo sapiens, UniProt Q15375); assay: biochemical; parameters: KINOMEscan active-site competition binding, percent of control (100 = no competition); details: competition binding, percent control
Description: as §1

ERK3 = target: T1, ERK3 (Homo sapiens, UniProt Q16659); assay: biochemical; parameters: KINOMEscan active-site competition binding, percent of control (100 = no competition); details: competition binding, percent control
T1 construct: gene MAPK6
Description: as §1

FGFR3 = FGFR3 (Homo sapiens, UniProt P22607); assay: biochemical; parameters: KINOMEscan active-site competition binding, percent of control (100 = no competition); details: competition binding, percent control
Description: as §1

HIPK1 = HIPK1 (Homo sapiens, UniProt Q86Z02); assay: biochemical; parameters: KINOMEscan active-site competition binding, percent of control (100 = no competition); details: competition binding, percent control
Description: as §1

IKK-epsilon = target: T2, IKK-epsilon (Homo sapiens, UniProt Q14164); assay: biochemical; parameters: KINOMEscan active-site competition binding, percent of control (100 = no competition); details: competition binding, percent control
T2 construct: gene IKBKE
Description: as §1

MAP3K15 = MAP3K15 (Homo sapiens, UniProt Q6ZN16); assay: biochemical; parameters: KINOMEscan active-site competition binding, percent of control (100 = no competition); details: competition binding, percent control
Description: as §1

MYO3A = MYO3A (Homo sapiens, UniProt Q8NEV4); assay: biochemical; parameters: KINOMEscan active-site competition binding, percent of control (100 = no competition); details: competition binding, percent control
Description: as §1

NEK7 = NEK7 (Homo sapiens, UniProt Q8TDX7); assay: biochemical; parameters: KINOMEscan active-site competition binding, percent of control (100 = no competition); details: competition binding, percent control
Description: as §1

PAK2 = PAK2 (Homo sapiens, UniProt Q13177); assay: biochemical; parameters: KINOMEscan active-site competition binding, percent of control (100 = no competition); details: competition binding, percent control
Description: as §1

PLK1 = PLK1 (Homo sapiens, UniProt P53350); assay: biochemical; parameters: KINOMEscan active-site competition binding, percent of control (100 = no competition); details: competition binding, percent control
Description: as §1

PRKG1 = PRKG1 (Homo sapiens, UniProt Q13976); assay: biochemical; parameters: KINOMEscan active-site competition binding, percent of control (100 = no competition); details: competition binding, percent control
Description: as §1

RIPK4 = RIPK4 (Homo sapiens, UniProt P57078); assay: biochemical; parameters: KINOMEscan active-site competition binding, percent of control (100 = no competition); details: competition binding, percent control
Description: as §1

ROCK2 = ROCK2 (Homo sapiens, UniProt O75116); assay: biochemical; parameters: KINOMEscan active-site competition binding, percent of control (100 = no competition); details: competition binding, percent control
Description: as §1

SIK2 = SIK2 (Homo sapiens, UniProt Q9H0K1); assay: biochemical; parameters: KINOMEscan active-site competition binding, percent of control (100 = no competition); details: competition binding, percent control
Description: as §1

STK36 = STK36 (Homo sapiens, UniProt Q9NRP7); assay: biochemical; parameters: KINOMEscan active-site competition binding, percent of control (100 = no competition); details: competition binding, percent control
Description: as §1

TLK2 = TLK2 (Homo sapiens, UniProt Q86UE8); assay: biochemical; parameters: KINOMEscan active-site competition binding, percent of control (100 = no competition); details: competition binding, percent control
Description: as §1

WEE2 = WEE2 (Homo sapiens, UniProt P0C1S8); assay: biochemical; parameters: KINOMEscan active-site competition binding, percent of control (100 = no competition); details: competition binding, percent control
Description: as §1

Chain of ROCK2 (O75116 whole entry): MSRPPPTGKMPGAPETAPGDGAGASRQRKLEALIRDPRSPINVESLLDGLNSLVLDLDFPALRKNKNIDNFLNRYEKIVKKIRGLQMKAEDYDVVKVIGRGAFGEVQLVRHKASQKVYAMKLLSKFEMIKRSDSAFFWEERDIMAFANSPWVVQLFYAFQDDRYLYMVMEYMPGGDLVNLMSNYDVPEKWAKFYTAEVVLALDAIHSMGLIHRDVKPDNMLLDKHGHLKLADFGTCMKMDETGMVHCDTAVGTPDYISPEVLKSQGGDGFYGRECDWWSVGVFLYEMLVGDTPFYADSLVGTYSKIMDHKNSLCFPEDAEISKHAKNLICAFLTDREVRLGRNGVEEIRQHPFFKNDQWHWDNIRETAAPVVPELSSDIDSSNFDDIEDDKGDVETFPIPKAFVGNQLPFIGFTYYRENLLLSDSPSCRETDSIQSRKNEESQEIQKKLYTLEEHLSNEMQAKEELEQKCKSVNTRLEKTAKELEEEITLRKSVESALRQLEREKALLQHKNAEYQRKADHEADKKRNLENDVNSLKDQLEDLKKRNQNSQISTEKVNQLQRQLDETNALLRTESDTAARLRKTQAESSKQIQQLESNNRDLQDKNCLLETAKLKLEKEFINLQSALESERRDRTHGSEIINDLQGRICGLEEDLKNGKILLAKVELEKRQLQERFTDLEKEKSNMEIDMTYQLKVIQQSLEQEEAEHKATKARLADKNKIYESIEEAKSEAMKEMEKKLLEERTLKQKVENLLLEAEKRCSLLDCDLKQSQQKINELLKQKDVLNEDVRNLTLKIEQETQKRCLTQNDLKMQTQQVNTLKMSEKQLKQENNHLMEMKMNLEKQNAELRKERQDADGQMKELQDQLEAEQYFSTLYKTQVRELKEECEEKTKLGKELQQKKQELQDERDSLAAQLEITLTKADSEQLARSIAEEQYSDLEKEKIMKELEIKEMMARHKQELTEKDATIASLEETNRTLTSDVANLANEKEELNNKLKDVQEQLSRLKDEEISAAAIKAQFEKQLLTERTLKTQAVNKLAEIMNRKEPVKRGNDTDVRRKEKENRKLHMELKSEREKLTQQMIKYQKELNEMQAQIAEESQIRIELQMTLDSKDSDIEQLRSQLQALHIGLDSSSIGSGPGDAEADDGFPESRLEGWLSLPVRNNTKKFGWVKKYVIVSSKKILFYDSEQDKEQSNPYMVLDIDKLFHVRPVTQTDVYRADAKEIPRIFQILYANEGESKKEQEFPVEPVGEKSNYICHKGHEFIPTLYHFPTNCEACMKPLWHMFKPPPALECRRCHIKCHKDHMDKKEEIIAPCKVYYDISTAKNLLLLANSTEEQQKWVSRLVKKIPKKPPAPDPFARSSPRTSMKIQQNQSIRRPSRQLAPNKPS
Chain of EPHA7 (Q15375 whole entry): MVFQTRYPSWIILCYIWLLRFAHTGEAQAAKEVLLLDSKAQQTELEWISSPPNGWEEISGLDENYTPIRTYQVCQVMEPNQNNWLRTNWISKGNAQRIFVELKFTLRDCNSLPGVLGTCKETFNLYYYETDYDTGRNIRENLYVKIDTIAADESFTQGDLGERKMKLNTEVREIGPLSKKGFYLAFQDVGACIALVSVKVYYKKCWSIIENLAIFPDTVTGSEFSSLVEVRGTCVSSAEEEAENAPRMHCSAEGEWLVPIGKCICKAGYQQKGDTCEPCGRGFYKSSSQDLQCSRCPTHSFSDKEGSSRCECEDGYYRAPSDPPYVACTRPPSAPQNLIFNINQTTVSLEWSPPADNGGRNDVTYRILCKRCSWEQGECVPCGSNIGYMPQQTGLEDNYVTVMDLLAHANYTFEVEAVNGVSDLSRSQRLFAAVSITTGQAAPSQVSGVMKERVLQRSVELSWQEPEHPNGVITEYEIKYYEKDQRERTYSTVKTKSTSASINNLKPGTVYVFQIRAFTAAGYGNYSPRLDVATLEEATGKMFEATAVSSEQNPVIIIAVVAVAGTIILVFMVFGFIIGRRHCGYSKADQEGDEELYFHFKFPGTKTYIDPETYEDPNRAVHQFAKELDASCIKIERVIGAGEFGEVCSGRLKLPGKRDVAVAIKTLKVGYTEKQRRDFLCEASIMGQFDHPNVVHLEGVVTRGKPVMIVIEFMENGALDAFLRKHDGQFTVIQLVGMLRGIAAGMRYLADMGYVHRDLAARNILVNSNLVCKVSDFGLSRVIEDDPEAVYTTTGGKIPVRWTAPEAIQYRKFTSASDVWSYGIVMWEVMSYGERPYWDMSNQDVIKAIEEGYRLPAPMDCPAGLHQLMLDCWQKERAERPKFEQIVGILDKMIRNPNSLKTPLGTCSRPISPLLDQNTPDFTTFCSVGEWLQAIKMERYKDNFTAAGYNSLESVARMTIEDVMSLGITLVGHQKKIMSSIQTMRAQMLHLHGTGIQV
Chain of PLK1 (P53350 whole entry): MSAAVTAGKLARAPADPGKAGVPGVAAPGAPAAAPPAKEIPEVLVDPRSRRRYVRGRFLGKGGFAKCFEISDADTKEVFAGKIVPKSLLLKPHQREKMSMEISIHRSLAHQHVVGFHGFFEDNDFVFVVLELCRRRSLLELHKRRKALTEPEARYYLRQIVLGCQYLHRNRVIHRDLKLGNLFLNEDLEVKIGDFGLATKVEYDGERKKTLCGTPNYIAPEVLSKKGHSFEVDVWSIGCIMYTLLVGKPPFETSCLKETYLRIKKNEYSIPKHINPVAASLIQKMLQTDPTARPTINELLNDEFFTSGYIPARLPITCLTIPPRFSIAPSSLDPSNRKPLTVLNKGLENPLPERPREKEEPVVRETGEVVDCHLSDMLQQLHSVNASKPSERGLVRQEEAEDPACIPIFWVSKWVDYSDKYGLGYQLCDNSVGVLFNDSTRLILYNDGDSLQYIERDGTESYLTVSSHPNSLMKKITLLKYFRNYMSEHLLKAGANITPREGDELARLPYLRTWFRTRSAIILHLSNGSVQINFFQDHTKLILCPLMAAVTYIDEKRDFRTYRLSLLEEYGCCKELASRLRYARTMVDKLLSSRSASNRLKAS
Chain of CDK8 (P49336 whole entry): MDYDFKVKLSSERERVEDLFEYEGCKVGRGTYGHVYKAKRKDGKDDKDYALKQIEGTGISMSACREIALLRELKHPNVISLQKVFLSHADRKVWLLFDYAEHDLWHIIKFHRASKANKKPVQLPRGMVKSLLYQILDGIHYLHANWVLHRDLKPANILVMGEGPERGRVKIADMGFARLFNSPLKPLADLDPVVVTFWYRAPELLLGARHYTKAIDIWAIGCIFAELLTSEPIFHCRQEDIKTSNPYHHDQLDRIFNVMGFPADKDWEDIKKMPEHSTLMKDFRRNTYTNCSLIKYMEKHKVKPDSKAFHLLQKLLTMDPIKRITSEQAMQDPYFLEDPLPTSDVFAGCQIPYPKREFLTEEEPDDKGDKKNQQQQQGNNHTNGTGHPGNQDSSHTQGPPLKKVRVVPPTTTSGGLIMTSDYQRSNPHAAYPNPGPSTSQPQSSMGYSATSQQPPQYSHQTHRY
Chain of PRKG1 (Q13976 whole entry): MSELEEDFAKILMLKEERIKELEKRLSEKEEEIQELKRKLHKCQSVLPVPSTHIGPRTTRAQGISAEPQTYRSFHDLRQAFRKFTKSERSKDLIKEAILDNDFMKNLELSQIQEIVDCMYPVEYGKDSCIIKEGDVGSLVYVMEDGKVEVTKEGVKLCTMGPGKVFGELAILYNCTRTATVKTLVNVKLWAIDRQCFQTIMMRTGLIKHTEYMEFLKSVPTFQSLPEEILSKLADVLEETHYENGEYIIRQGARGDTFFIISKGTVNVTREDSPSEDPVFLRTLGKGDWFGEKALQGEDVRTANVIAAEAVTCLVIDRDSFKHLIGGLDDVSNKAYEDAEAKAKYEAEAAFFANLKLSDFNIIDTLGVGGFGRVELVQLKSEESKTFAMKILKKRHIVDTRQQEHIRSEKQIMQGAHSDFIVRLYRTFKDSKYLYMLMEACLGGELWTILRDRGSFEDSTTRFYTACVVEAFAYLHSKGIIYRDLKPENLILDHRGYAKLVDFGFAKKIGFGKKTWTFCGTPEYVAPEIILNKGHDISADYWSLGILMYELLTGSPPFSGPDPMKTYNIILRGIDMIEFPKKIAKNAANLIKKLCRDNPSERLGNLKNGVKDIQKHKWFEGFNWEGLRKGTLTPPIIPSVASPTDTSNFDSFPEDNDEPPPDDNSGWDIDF
Chain of LIMK2 (P53671 whole entry): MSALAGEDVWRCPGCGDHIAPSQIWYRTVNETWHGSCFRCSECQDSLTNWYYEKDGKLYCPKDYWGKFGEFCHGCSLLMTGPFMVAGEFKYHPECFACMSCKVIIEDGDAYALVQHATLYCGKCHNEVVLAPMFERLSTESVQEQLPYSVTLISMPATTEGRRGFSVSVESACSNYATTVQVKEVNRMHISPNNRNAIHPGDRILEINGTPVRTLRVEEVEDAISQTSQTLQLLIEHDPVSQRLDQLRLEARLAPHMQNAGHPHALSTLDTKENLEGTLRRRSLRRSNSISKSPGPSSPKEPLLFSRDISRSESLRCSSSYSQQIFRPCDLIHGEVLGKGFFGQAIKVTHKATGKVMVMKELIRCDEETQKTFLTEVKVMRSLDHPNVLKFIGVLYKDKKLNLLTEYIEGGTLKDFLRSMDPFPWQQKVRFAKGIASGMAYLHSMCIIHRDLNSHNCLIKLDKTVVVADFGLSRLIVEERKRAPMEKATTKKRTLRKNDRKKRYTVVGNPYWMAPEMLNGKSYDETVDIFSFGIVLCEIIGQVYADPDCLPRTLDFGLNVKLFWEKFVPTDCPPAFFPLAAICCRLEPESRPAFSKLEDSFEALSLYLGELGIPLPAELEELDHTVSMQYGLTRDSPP
Chain of NEK7 (Q8TDX7 whole entry): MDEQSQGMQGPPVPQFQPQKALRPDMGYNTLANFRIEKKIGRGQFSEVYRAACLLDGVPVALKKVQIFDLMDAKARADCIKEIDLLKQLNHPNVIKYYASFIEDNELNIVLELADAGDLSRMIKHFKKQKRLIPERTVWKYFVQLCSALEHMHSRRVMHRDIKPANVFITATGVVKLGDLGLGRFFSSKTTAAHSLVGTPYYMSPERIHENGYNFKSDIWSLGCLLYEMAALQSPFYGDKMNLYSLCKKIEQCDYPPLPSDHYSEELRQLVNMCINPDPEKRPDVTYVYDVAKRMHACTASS

Compound | IC50 (LIMK2) [nM] | remaining binding at 10 µM (CDK8) [%] | remaining binding at 10 µM (CSNK1G1) [%] | remaining binding at 10 µM [1] [%] | remaining binding at 10 µM (EPHA3) [%] | remaining binding at 10 µM (EPHA5) [%] | remaining binding at 10 µM (EPHA7) [%] | remaining binding at 10 µM (ERK3) [%] | remaining binding at 10 µM (FGFR3) [%] | remaining binding at 10 µM (HIPK1) [%] | remaining binding at 10 µM (IKK-epsilon) [%] | remaining binding at 10 µM (MAP3K15) [%] | remaining binding at 10 µM (MYO3A) [%] | remaining binding at 10 µM (NEK7) [%] | remaining binding at 10 µM (PAK2) [%] | remaining binding at 10 µM (PLK1) [%] | remaining binding at 10 µM (PRKG1) [%] | remaining binding at 10 µM (RIPK4) [%] | remaining binding at 10 µM (ROCK2) [%] | remaining binding at 10 µM (SIK2) [%] | other results
COc1ccc(-c2cnccc2-c2cnc(NC(=O)C(C)C)s2)c(C(F)(F)F)c1 [CRT0105446, N-{5-[3-(4-Methoxy-2-trifluoromethyl-phenyl)-pyridin-4-yl]-hiazol-2-yl}-isobutyramide] | 32 | 39 | 94 | 98 | 87 | 100 | 94 | 100 | 96 | 100 | 85 | 93 | 100 | 100 | 80 | 100 | 100 | 100 | 95 | 78 | remaining binding at 10 µM (STK36): 57%; remaining binding at 10 µM (TLK2): 99%; remaining binding at 10 µM (WEE2): 100%
Cc1ccc(-c2cnccc2-c2cnc(Nc3ccc(O)cc3)s2)c(Cl)c1 [CRT0105950, 4-{5-[3-(2-Chloro-4-methyl-phenyl)-pyridin-4-yl]-thiazol-2-ylamino}-phenol] | 1 | 11 | 82 | 64 | 71 | 100 | 83 | 97 | 4.8 | 65 | 41 | 82 | 65 | 100 | 76 | 100 | 72 | 99 | 77 | 7.1 | remaining binding at 10 µM (STK36): 17%; remaining binding at 10 µM (TLK2): 56%; remaining binding at 10 µM (WEE2): 100%
